Source: patent publication US9386767B2, “Derivatives of dillapiol and related monolignans and use thereof” (UNIVERSITY OF OTTAWA, priority 2011, dated 2016)
“And” between values parts separate entries of the source, which are not always exact repeats. Equal entries are not always repeated. Where two headings read alike, the source gives them in different places.

Experiments:
CYP3A4 (BDGentest) = target: T1, CYP3A4 (BDGentest) (Homo sapiens, UniProt P08684); assay: New CYP3A4 bioassay with dibenzylfluorescein (DBF) substrate (Foster et al. 2011); format: biochemical; conditions: for IC50: human microsomes; for % Activity relative to dillapiol = 1: new CYP3A4 bioassay, inhibition relative to dillapiol
T1 construct: purchased BDGentest
Experimental: (§1) In the second set of experiments, new CYP3A4 enzyme inhibition assays were conducted with a designed set of analogs and newer method described by Foster et al. (J. Agric. Food Chem, 2011, 59(9):5159-5163). This assay using the substrate dibenzylfluorescein (DBF) is considered more representative of CYP3A4 activity as compared to the benzyloxyresorufin assay previously used (Budzinski et al., 2000, Phytomedicine, 7(4):273-282).
Aliquots (10 μL) of stock solutions of the undiluted products were screened for their ability to inhibit CYP3A4 (BDGentest) metabolism of the non-fluorescent dibenzylfluorescein (DBF) substrates to the fluorescent metabolite using an in vitro fluorometric microtiter plate assay (CytoFluor Series 4000 multi-well plate reader). Briefly, assays were performed with 10 μL of product in clear-bottom, opaque-welled microtiter plates (96 well, Corning Costar). Control and control blank wells contained 5% ethanol, and test and test blank wells contained the product. All wells tested contained distilled water, β-nicotinamide adenine dinucleotide phosphate, reduced form (NADPH, Sigma Chemicals), and the enzyme substrate DBF (final concentration of 1 μM/well), for a total reaction volume of 200 μL. Control and test wells also contained live isozyme, within human microsomes, in phosphate buffer solution (PBS; 0.5 M, pH 7.4), and control blank and test blank wells contained denatured isoenzyme in PBS. Fluorescence was measured at 485 nm excitation and 530 nm emission, with a gain of 50.

human cytochrome CYP3A4 = human cytochrome CYP3A4 (Homo sapiens, UniProt P08684); assay: CYP3A4 inhibition assay of dillapiol derivatives (earlier benzyloxyresorufin assay); format: biochemical; conditions: for Rel. Activity Dillapiol = 1.0: CYP3A4 inhibition relative to dillapiol
Experimental: A suite of dillapiol derivatives were synthesized and assayed for their capacity to inhibit human cytochrome CYP3A4. For each molecule, experimental IC50 values for CYP3A4 inhibition were determined. These IC50 values together with the log of the octanol-water partition coefficient (logP) and molecular refractivity (MR) are shown in Table 1, and were used as parameters to model a quantitative structure-activity relationship (QSAR). The resulting equations were used to guide the design of further derivatives with enhanced CYP3A4 inhibition.
as §1

[1] = DBF substrate 1 μM, read-out: IC50 (converted)
[2] = Table 1, CYP3A4 inhibition, read-out: IC50

Sequence of human cytochrome CYP3A4 (P08684 whole entry): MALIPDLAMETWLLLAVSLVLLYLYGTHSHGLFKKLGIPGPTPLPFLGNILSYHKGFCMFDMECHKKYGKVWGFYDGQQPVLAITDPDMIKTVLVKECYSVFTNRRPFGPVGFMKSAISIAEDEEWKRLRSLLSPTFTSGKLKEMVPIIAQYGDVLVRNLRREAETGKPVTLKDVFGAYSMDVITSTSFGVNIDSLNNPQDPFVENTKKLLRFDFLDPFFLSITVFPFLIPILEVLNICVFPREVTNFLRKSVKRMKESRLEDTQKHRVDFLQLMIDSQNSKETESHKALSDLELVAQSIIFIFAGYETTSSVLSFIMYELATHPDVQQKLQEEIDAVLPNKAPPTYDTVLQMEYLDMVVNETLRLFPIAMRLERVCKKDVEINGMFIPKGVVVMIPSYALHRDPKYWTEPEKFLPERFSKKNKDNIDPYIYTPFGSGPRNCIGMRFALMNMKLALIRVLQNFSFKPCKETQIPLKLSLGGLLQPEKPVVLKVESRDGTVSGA
T1 sequence (P08684 whole entry): as above

Row | Structure (SMILES) | IC50 (CYP3A4 (BDGentest); [1]) | % Activity relative to dillapiol = 1 (CYP3A4 (BDGentest)) | further results
1 | COc1ccc(OC)c(COc2cc3c(cc2CCCOC(=O)C(c2ccccc2)c2ccccc2)OCO3)c1 [Compound 69] | – | – | CYP3A4 inhibition (in words) (CYP3A4 (BDGentest)): strong CYP3A4 inhibitors
2 | COc1c(CCCOC(=O)c2ccc(Cl)cc2Cl)cc2c(c1OC)OCO2 | 1.4 µM and 1.43 µM | 6.56 | –
3 | C=CCc1cc2c(c(SCc3ccccc3)c1OC)OCO2 [Compound 25] | – | – | CYP3A4 inhibition compared with dillapiol (in words) (human cytochrome CYP3A4; Table 1): at least four times lower than dillapiol; Rel. Activity Dillapiol = 1.0 (human cytochrome CYP3A4; Table 1): 9 and 9.3; IC50 (human cytochrome CYP3A4; [2]): 44 µM
4 | C=CCc1cc2c(c(C(O)CCCCCCCC)c1OC)OCO2 (centres unmarked) [Compound 2] | – | – | CYP3A4 inhibition compared with dillapiol (in words) (human cytochrome CYP3A4; Table 1): at least four times lower than dillapiol; Rel. Activity Dillapiol = 1.0 (human cytochrome CYP3A4; Table 1): 15; IC50 (human cytochrome CYP3A4; [2]): 26 µM
5 | C=CCc1cc2c(c(S(C)(=O)=O)c1OC)OCO2 [Compound 15] | – | – | Rel. Activity Dillapiol = 1.0 (human cytochrome CYP3A4; Table 1): 0.37; IC50 (human cytochrome CYP3A4; [2]): 1100 µM
6 | COc1c(CCCOC(=O)/C=C/c2ccccc2)cc2c(c1OC)OCO2 | 2.38 µM | 3.86 | –
7 | COc1c(CCCOC(=O)C(c2ccccc2)c2ccccc2)cc2c(c1OC)OCO2 [drawing 58] | 0.434 µM | 21.15 | –
8 | OCCCc1cc2c(cc1OCc1ccccc1)OCO2 | 3 µM | 3 | –
9 | C=CCc1cc2c(c(SC)c1O)OCO2 [Compound 19] | – | – | Rel. Activity Dillapiol = 1.0 (human cytochrome CYP3A4; Table 1): 1.0; IC50 (human cytochrome CYP3A4; [2]): 420 µM
10 | C=CCc1cc2c(c(Sc3ccc(OC)cc3)c1OC)OCO2 [Compound 22] | – | – | Rel. Activity Dillapiol = 1.0 (human cytochrome CYP3A4; Table 1): 0.67; IC50 (human cytochrome CYP3A4; [2]): 660 µM
11 | COc1c(CCCC(O)(c2ccccc2)c2ccccc2)cc2c(c1OC)OCO2 | 1.06 µM | 8.7 | –
12 | COc1c(CCCOC(=O)c2ccc(Cl)cc2)cc2c(c1OC)OCO2 | 1.56 µM | 5.89 | –
13 | COc1c(CCCOCc2ccc(F)cc2)cc2c(c1OC)OCO2 | 10.3 µM | 0.89 | –
14 | COc1cc2c(cc1CCCOC(=O)c1ccccc1)OCO2 [drawing 73] | 2.07 µM | 4.4 | –
15 | C=CCc1cc2c(cc1OCc1ccccc1)OCO2 | 1.44 µM and 1.43 µM | 6.37 | –
16 | COc1cc2c(cc1CCCOC(=O)C(c1ccccc1)c1ccccc1)OCO2 [Compound 61] | 0.47 µM | 19.5 | CYP3A4 inhibition (in words) (CYP3A4 (BDGentest)): strong CYP3A4 inhibitors
17 | C=CCc1cc2c(c(/C=C/C(=O)OC)c1OC)OCO2 [Compound 6] | – | – | Rel. Activity Dillapiol = 1.0 (human cytochrome CYP3A4; Table 1): 1.7; IC50 (human cytochrome CYP3A4; [2]): 240 µM
18 | C=CCc1cc2c(c(COC)c1OC)OCO2 [Compound 5] | – | – | Rel. Activity Dillapiol = 1.0 (human cytochrome CYP3A4; Table 1): 1.3; IC50 (human cytochrome CYP3A4; [2]): 320 µM
19 | C=CCc1cc2c(c(SC)c1OC)OCO2 [Compound 18] | – | – | IC50 (human cytochrome CYP3A4): 320 µM; Rel. Activity Dillapiol = 1.0 (human cytochrome CYP3A4; Table 1): 1.3

Row | Structure (SMILES) | IC50 (CYP3A4 (BDGentest); [1]) | % Activity relative to dillapiol = 1 (CYP3A4 (BDGentest)) | further results
20 | COc1c(C/C=C/Cc2cc3c(c(OC)c2OC)OCO3)cc2c(c1OC)OCO2 [drawing 66] | 1.44 µM | 6.3 | –
21 | COc1c(CCCOC(=O)C(C)(C)C)cc2c(c1OC)OCO2 | 2.78 µM and 2.77 µM | 3.3 | –
22 | COc1c(CCCOCc2ccccc2)cc2c(c1OC)OCO2 | 6.66 µM | 1.38 | –
23 | COc1c(CCCOC(C)=O)cc2c(c1OC)OCO2 | 9.22 µM and 9.21 µM | 1 | –
24 | COc1c(CCCOC(=O)C2CCCCC2)cc2c(c1OC)OCO2 | 1.9 µM | 4.83 | –
25 | O=C(/C=C/c1ccccc1)OCCCc1cc2c(cc1OCc1ccccc1)OCO2 | 8 µM and 7.92 µM | 1.125 | –
26 | COc1c(CCCOC(=O)CCCc2ccccc2)cc2c(c1OC)OCO2 | 4.14 µM | 2.22 | –
27 | O=C(OCCCc1cc2c(cc1OCc1ccccc1)OCO2)c1ccccc1 | 3.9 µM and 3.84 µM | 2.3 | –
28 | COc1c(C/C=C/Cc2cc3c(c(OC)c2OC)OCO3)cc2c(c1OC)OCO2 [Compound 56] | 1.8 µM | 5.1 | % Activity relative to dillapiol = 1 (CYP3A4 (BDGentest); listed as drawing 59): 5.1
29 | C/C=C(\C)C(=O)OCCCc1cc2c(c(OC)c1OC)OCO2 | 1.55 µM | 5.9 | –
30 | O=C(OCCCc1cc2c(cc1OCc1ccccc1)OCO2)C(c1ccccc1)c1ccccc1 [drawing 80] | 0.62 µM and 0.624 µM | 14 | –
31 | COc1c(CC/C=C/C(=O)NC(C)C)cc2c(c1OC)OCO2 | 2.1 µM | 4.37 | –
32 | COc1c(CCCC(c2ccccc2)c2ccccc2)cc2c(c1OC)OCO2 | > 20 µM | – | –
33 | O=C(OCCCc1cc2c(cc1OCc1ccccc1)OCO2)c1ccc2c(c1)OCO2 | 1.4 µM and 1.38 µM | 6.6 | –
34 | O=C(OCCCc1cc2c(cc1OCc1ccccc1)OCO2)C(c1ccccc1)c1ccccc1 [Compound 70] | – | 4 | CYP3A4 inhibition (in words) (CYP3A4 (BDGentest)): strong CYP3A4 inhibitors
35 | COc1cc2c(cc1CCCOC(=O)/C=C/c1ccccc1)OCO2 | 4.73 µM | 1.94 | –
36 | COc1c(CCCOC(=O)c2ccc3c(c2)OCO3)cc2c(c1OC)OCO2 | 2.63 µM | 3.49 | –
37 | COc1ccc(OC)c(COc2cc3c(cc2CCCOC(=O)C(c2ccccc2)c2ccccc2)OCO3)c1 [drawing 79] | 0.23 µM | 41 | –
38 | COc1ccc(OC)c(COc2cc3c(cc2CCCOC(=O)c2ccccc2)OCO3)c1 [Compound 50] | – | – | CYP3A4 inhibition (in words) (CYP3A4 (BDGentest)): strong CYP3A4 inhibitors

Row | Structure (SMILES) | IC50 (CYP3A4 (BDGentest); [1]) | % Activity relative to dillapiol = 1 (CYP3A4 (BDGentest)) | further results
39 | COc1c(CCCOC(=O)Cc2ccccc2)cc2c(c1OC)OCO2 | – | 4.83 | IC50 (CYP3A4 (BDGentest); IC50, DBF substrate 1 μM): 1.9 µM
40 | O=C(CCCC/C=C/c1ccc2c(c1)OCO2)OCCCO | 4.1 µM and 4.08 µM | 2.2 | –
41 | COc1c(CCC(C)O)cc2c(c1OC)OCO2 (centres unmarked) | > 20 µM | – | –
42 | C=CCc1cc2c(cc1OCc1cc(OC)ccc1OC)OCO2 | 2.15 µM | 4.27 | –
43 | COc1c(CCCOC(=O)c2ccc([N+](=O)[O-])cc2)cc2c(c1OC)OCO2 | > 13 µM | – | –
44 | C=CCc1cc2c(cc1OC)OCO2 | – | – | IC50 (CYP3A4 (BDGentest); IC50, DBF substrate 1 μM): > 26 µM
45 | C=CCc1cc2c(cc1O)OCO2 [drawing 54] | > 28.1 µM | – | –
46 | COc1ccc(OC)c(COc2cc3c(cc2CCCOC(=O)c2ccccc2)OCO3)c1 [drawing 60] | 0.36 µM and 0.355 µM | 25.5 | –
47 | COc1c(CCCOC(=O)c2ccccc2Cl)cc2c(c1OC)OCO2 | 5.27 µM | 1.75 | –
48 | OCCCCc1ccc2c(c1)OCO2 | > 26 µM | – | –
49 | COc1cc2c(cc1CCCO)OCO2 | 4.05 µM and 4.04 µM | 2.25 | –
50 | COc1cc2c(cc1CCCOC(=O)c1ccccc1)OCO2 [Compound 63] | – | – | CYP3A4 inhibition (in words) (CYP3A4 (BDGentest)): strong CYP3A4 inhibitors
51 | COc1c(CCCOC(=O)C(c2ccccc2)c2ccccc2)cc2c(c1OC)OCO2 [Compound 48] | – | – | CYP3A4 inhibition (in words) (CYP3A4 (BDGentest)): potent inhibitor
52 | O=C(O)CCCC/C=C/c1ccc2c(c1)OCO2 | > 20.1 µM | – | –
53 | COc1c(CCCCO)cc2c(c1OC)OCO2 | 11.6 µM | 0.8 | –
54 | CCCc1cc2c(cc1OC)OCO2 | – | – | IC50 (CYP3A4 (BDGentest); IC50, DBF substrate 1 μM): > 26 µM
55 | OC(CCCC/C=C/c1ccc2c(c1)OCO2)(c1ccccc1)c1ccccc1 [Compound 59] | 0.54 µM and 0.517 µM | 17 | –
56 | CCCCCC(=O)OCCCc1cc2c(c(OC)c1OC)OCO2 | 3.25 µM | 2.82 | –
